According to PMC10447463, “Data-mining unveils structure–property–activity correlation of viral infectivity enhancing self-assembling peptides” (Nature Communications, 2023):

What was measured:
[1] = system: HIV-1 infection of TZM-bl cells; assay: HIV-1 infectivity enhancement assay, β-galactosidase luminescence; type: cell-based; conditions: for Absolute Infectivity / RLU /s (Feb2021): unrounded values of the 1.3 µM column; for Log10 Inf. rel. to EF-C: log10 of HIV-1 infection of TZM-bl cells relative to EF-C, Fig S15 source data, asymmetric std dev errors
[2] = type: physicochemical; conditions: STD prep
[3] = Turbidity, derived count rate of scattered light; type: physicochemical; conditions: for Zeta Count Rate / kcps: mean; for Log Count Rate: log of derived count rate
In short: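 Samples: 1 mg/mL in PBS pH 7.4 (from DMSO), 1 d at RT, then diluted in 1 mM KCl immediately before measurement. Triplicates, two independent runs averaged.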

[4] = Feb2021, 1.3 µM value relative to virus only (0 µM)
[5] = Feb2021, n-fold infectivity relative to EF-C
[6] = infectivity class (low / medium / high) of each library peptide, main list in c1-c6, same classes repeated in sub-lists of sequences containing the hydrophobicity/charge patterns P+,H0,P+,H0,P0,H0,P0, P+,H0,P0,H0,P0,H0,P0, P+,H0,P0,H0
[7] = derived count rate of scattered light, std deviation in next column
[8] = Feb2021, Log10 of infectivity relative to EF-C
[9] = Feb2021, n-fold enhancement relative to EF-C
[10] = Feb2021 run, infectivity n-fold relative to virus alone
[11] = Feb2021 run, log10 of infectivity relative to EF-C
[12] = Feb2021 run, n-fold infectivity relative to EF-C
[13] = category 1 or 0 from count rate, key not given
[14] = derived count rate of scattered light, std deviation in separate column
[15] = Feb2021, infectivity enhancement relative to EF-C
[16] = infectivity class (low / medium / high) of the peptide in the sequence-pattern analysis, Fig. S22-A4, class limits not given
[17] = category 1 or 0 derived from the count rate, key not given

Substance | n-fold to virus (Feb2021) [1, 4] | Rel-to EFC (Feb-2021) [1, 5] | Absolute Infectivity / RLU /s (Feb2021) ([1]; Feb2021) [RLU /s] | infectivity [1, 6] | Log10 Inf. rel. to EF-C [1] | TEM: 1= fibrils, 0= aggregates (micelle), 0.5 = aggregates and fibrils, -1 = nothing obersved, STD prep [2] | Zeta Count Rate Category ([3]; category 1/0, no key printed) | Zeta Count Rate / kcps [3, 7] [kcps] | Log10 of Rel to EFC (Feb2021) [1, 8] | Rel-to EFC (Feb-2021) [1, 9] | n-fold to virus (Feb2021) [1, 10] | Log10 of Rel to EFC (Feb2021) [1, 11] | Rel-to EFC (Feb-2021) [1, 12] | Zeta Count Rate Category [3, 13] | Zeta Count Rate / kcps [3, 14] [kcps] | further results
CRFRVPF [CN8] | 0.837 | 0.01992 | 376.7 | low | -1.701 | 0 | 0 | 73.97 | – | – | – | – | – | – | – | Log10 of Rel to EFC (Feb2021) ([1]; Feb2021, log10 of infectivity relative to EF-C): -1.701
MKIKIQINMWQ [TM52] | 17.6 | 0.4188 | 12786.66667 | medium | -0.378 | 1 | 1 | 1475 | -0.378 | 0.4188 | 17.6 | -0.378 | 0.4188 | 1 | 1475 | –
QCKFKFQFNM [CK8] | 21.52 | 0.5121 | 16353.33333 | medium | -0.2906 | 1 | 1 | 3669.6 | -0.2906 | 0.5121 | 21.52 | -0.2906 | 0.5121 | 1 | 3669.6 | –
QCKIKIQI [CK3] | 4.706 | 0.112 | 3577 | medium | -0.9508 | 1 | 1 | 12426.83333 | -0.9508 | 0.112 | 4.706 | -0.9508 | 0.112 | 1 | 12426.83333 | –
KFKFQFNM [BL6a] | 19.81 | 0.4715 | 7067 | medium | -0.3265 | 1 | 1 | 131.8 | -0.3265 | 0.4715 | 19.81 | -0.3265 | 0.4715 | 1 | 131.8 | –
CKFKFQFW [TM72] | – | – | – | high | -0.05512 | – | – | 29210.5 | -0.05512 | – | – | – | – | – | – | Rel-to EFC (Feb-2021) [1, 15]: 0.8808; Rel-to EFC ([1]; Fig S8 panels B, D, infectivity enhancement relative to EF-C): 0.8808; n-fold to virus ([1]; Fig S8 panels B, D, infectivity n-fold relative to virus alone): 37.01; infectivity [1, 16]: high; Log Count Rate ([3]; Fig S8 panels A, C, asymmetric log errors): 4.466; Log Count Rate ([3]; Fig S8 panels B, D): 4.466; Count Rate ([3]; Fig S8 panels B, D, turbidity, derived count rate of scattered light): 29210.5; Zeta Count Rate Category [3, 17]: 1
KIKIKIKIYYYY [JR7] | – | – | – | – | 0.1402 | – | – | 9918 | 0.1402 | – | – | – | – | – | – | Rel-to EFC (Feb-2021) [1, 15]: 1.381; infectivity [1, 16]: high; Zeta Count Rate Category [3, 17]: 1
RGDSKIKIQIC [TM113 / RC11] | – | – | – | medium | -0.2249 | – | – | 2699 | -0.2249 | 0.5957 | – | – | – | 1 | – | n-fold to virus (Feb2021) ([1]; Feb2021, infectivity relative to virus only (0 µM)): 25.03 n-fold
